Calls of active or inactive are those of the source. The rule behind the calls is not given here.
Assays:
Plasmodium falciparum [1] = experiment: Antiplasmodial activity against chloroquine, pyrimethamine and mefloquine-resistant asexual blood stage of Plasmodium falciparum Dd2 assessed as reduction in parasite growth after 72 hrs by SYBR green I staining based fluorescence assay; type: functional, organism-based; conditions: Dd2, 72 h
Plasmodium falciparum [2] = experiment: Antiplasmodial activity against chloroquine, pyrimethamine and mefloquine-sensitive asexual blood stage of Plasmodium falciparum 3D7 assessed as reduction in parasite growth after 72 hrs by SYBR green I staining based fluorescence assay; type: functional, organism-based; conditions: 3D7, 72 h
[3] = Half life in rat plasma at 40 mg/kg, po; type: ADME, organism-based
[4] = Cytotoxicity against human HEK293 cells assessed as reduction in cell viability incubated for 24 hrs by resazurin dye based fluorescence assay
[5] = Cytotoxicity against human primary hepatocytes assessed as reduction in cell viability incubated for 24 hrs by DAPI staining based fluorescence assay; set-up: species or system Hepatocyte
Escherichia coli = experiment: Antibacterial activity against Escherichia coli BL21 (DE3) cells assessed as inhibition of bacterial growth measured after 18 hrs measured by cell density meter; type: functional
[6] = Plasma protein binding in CD-1 mouse at 1 to 10 uM by LC-MS analysis; type: ADME, cell-free; conditions: dose 1-10 µM, read-out: PPB
[7] = Stability in CD-1 mouse plasma measured after 60 mins LC-MS analysis; type: ADME, cell-free; conditions: read-out: Stability
[8] = Solubility of the compound in pH 7.4 PBS buffer by LC-MS analysis; type: physicochemical
[9] = Stability in CD-1 mouse liver microsomes assessed as half life measured after 60 mins in presence of NADPH LC-MS analysis; type: ADME, Microsome
[10] = Stability in mouse hepatocyte assessed as half life measured after 120 mins by LC-MS analysis; type: ADME, tissue-based; conditions: hepatocytes
[11] = Partition coefficient, logD between 1-octanol and pH 7.4 PBS by LC-MS analysis; type: physicochemical; conditions: 1-octanol/PBS
[12] = Oral bioavailability in rat; type: ADME, organism-based; conditions: in vivo
[13] = AUC(0 to 24) in rat at 40 mg/kg, po; type: ADME, organism-based; set-up: time < 24 hr, route oral, dose 40 mg/kg; conditions: in vivo
Plasmodium berghei = experiment: In vivo antimalarial activity against blood stage transgenic Plasmodium berghei ANKA strain (PbGFP-Luccon) infected in swiss Webster mouse assessed as supression of parasitemia at 40 mg/kg, po administered once daily starting from day 2 to 6 post infection and measured at day 7 by luciferase substrate based imaging analysis; type: functional, organism-based; conditions: time 5.0 day

Row | SMILES | EC50 (Plasmodium falciparum [1]) | other results
1 | CCOc1ccc([C@@H]2c3[nH]c4ccccc4c3CCN2C(=O)c2cc3cc(Br)ccc3o2)cc1 | 138 nM | EC50 (Plasmodium falciparum [2]): 120 nM
2 | O=C(c1cc2cc(Br)ccc2o1)N1CCc2c([nH]c3ccccc23)[C@@H]1c1ccc(Cl)cc1 | 28 nM | EC50 (Plasmodium falciparum [2]): 15 nM
3 | O=C(c1cc2cc(Br)ccc2o1)N1CCc2c([nH]c3ccccc23)[C@H]1c1ccc(Cl)cc1 | 155 nM | half-life [3]: 8 h; EC50 (Plasmodium falciparum [2]): 180 nM; CC50 at 24 h [4]: > 50000 nM; CC50 at 24 h [5]: > 10000 nM; MIC (Escherichia coli): > 25 µM; fraction unbound at up to 10 µM [6]: < 0.001; remaining at 1 h [7]: 100%; solubility [8]: < 0.044 µM; half-life [9]: 1.32 h; half-life [10]: 2.92 h; logD [11]: > 5; bioavailability [12]: 11%; AUC at 24 h [13]: 28200 ng·h/mL; Activity (Plasmodium berghei): inactive
4 | CCOc1ccc([C@@H]2c3[nH]c4ccccc4c3CCN2C(=O)c2cc3cc(Cl)ccc3[nH]2)cc1 | 1250 nM | 
5 | O=C(c1cc2cc(Br)ccc2o1)N1CCc2c([nH]c3ccccc23)[C@H]1c1ccc(Br)cc1 | 239 nM | 
6 | COc1ccc(C(=O)N2CCc3c([nH]c4ccccc34)C2c2ccc(Cl)cc2)cc1 (racemic) | 1250 nM | 
7 | Clc1ccc(C2NCCc3c2[nH]c2ccccc32)cc1 (racemic) | 5000 nM | 
8 | O=C(c1ccc(Br)cc1)N1CCc2c([nH]c3ccccc23)C1c1ccc(Cl)cc1 (racemic) | 682 nM | 
9 | O=C(c1ccccc1)N1CCc2c([nH]c3ccccc23)C1c1ccc(Cl)cc1 (racemic) | 2500 nM | 
10 | Cc1ccc2oc(C(=O)N3CCc4c([nH]c5ccccc45)[C@H]3c3ccc(Cl)cc3)cc2c1 | 198 nM | 
11 | CCOc1ccc([C@@H]2c3[nH]c4ccccc4c3CCN2C(=O)c2cc3cc(Cl)ccc3o2)cc1 | 129 nM | EC50 (Plasmodium falciparum [2]): 175 nM
12 | CCOc1ccc([C@@H]2c3[nH]c4ccccc4c3CCN2C(=O)c2cc3cc(F)ccc3o2)cc1 | 123 nM | 
13 | CC(=O)N1CCc2c([nH]c3ccccc23)C1c1ccc(Cl)cc1 (racemic) | 2500 nM | 
14 | O=C(CCC1CCCC1)N1CCc2c([nH]c3ccccc23)C1c1ccc(Cl)cc1 (racemic) | 726 nM | 
15 | CCOc1ccc([C@@H]2c3[nH]c4ccccc4c3CCN2C(=O)c2cc3ccccc3o2)cc1 | 1250 nM | 
16 | O=C(c1cc2ccc(Br)cc2o1)N1CCc2c([nH]c3ccccc23)[C@H]1c1ccc(Cl)cc1 | 796 nM | 

Row | SMILES | EC50 (Plasmodium falciparum [1]) | other results
17 | O=C(c1cc2ccccc2o1)N1CCc2c([nH]c3ccccc23)[C@H]1c1ccc(Cl)cc1 | 1250 nM | 
18 | CCN(CC)CCCC(C)Nc1ccnc2cc(Cl)ccc12 (stereo not drawn) [CHLOROQUINE] | 319 nM | EC50 (Plasmodium falciparum [2]): 7 nM; Activity (Plasmodium berghei): Active
19 | O=C(c1cc2cc(Cl)ccc2o1)N1CCc2c([nH]c3ccccc23)[C@H]1c1ccc(Br)cc1 | 194 nM | 
20 | O=C(c1cc2cc(Br)ccc2o1)N1CCc2c([nH]c3ccccc23)[C@H]1c1ccc(F)cc1 | 211 nM | 
21 | CCOc1ccc([C@H]2c3[nH]c4ccccc4c3CCN2C(=O)c2cc3cc(Br)ccc3o2)cc1 | 625 nM | 
22 | O=C(c1cc2cc(Br)ccc2o1)N1CCc2c([nH]c3ccccc23)[C@H]1c1ccccc1 | 452 nM | 
23 | O=C(c1cc2cc(Cl)ccc2o1)N1CCc2c([nH]c3ccccc23)[C@H]1c1ccc(Cl)cc1 | 173 nM | EC50 (Plasmodium falciparum [2]): 304 nM
24 | CCOc1ccc([C@@H]2c3[nH]c4ccccc4c3CCN2C(=O)c2nc3cc(Br)ccc3o2)cc1 | 770 nM | EC50 (Plasmodium falciparum [2]): 937 nM
25 | O=C(c1cc2cc(Cl)ccc2[nH]1)N1CCc2c([nH]c3ccccc23)[C@H]1c1ccc(Cl)cc1 | 1250 nM | 
26 | O=C(c1cc2cc(Br)ccc2o1)N1CCc2c([nH]c3ccccc23)C1c1ccc(Cl)cc1 (racemic) | 185 nM | 
27 | O=C(c1ccc(Cl)c(Cl)c1)N1CCc2c([nH]c3ccccc23)C1c1ccc(Cl)cc1 (racemic) | 1240 nM | 
28 | O=C(c1cc2cc(Cl)ccc2o1)N1CCc2c([nH]c3ccccc23)[C@H]1c1ccc(F)cc1 | 143 nM | 
29 | CCOc1ccc([C@@H]2c3[nH]c4ccccc4c3CCN2C(=O)c2nc3cc(Br)ccc3[nH]2)cc1 | 625 nM | 
30 | N#Cc1ccc([C@@H]2c3[nH]c4ccccc4c3CCN2C(=O)c2cc3cc(Br)ccc3o2)cc1 | 216 nM | 
31 | C[C@@H]1CC[C@H]2[C@@H](C)C(=O)O[C@@H]3O[C@@]4(C)CC[C@@H]1[C@]32OO4 [ARTEMISININ] | 11 nM | EC50 (Plasmodium falciparum [2]): 10 nM

Reference: ChEMBL document CHEMBL5036373, “Enantiopure Benzofuran-2-carboxamides of 1-Aryltetrahydro-β-carbolines Are Potent Antimalarials In Vitro” (ACS Med Chem Lett, 2022)
